Experimental data taken from ChEMBL document CHEMBL1201862, “PubChem BioAssay data set” (2004).
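In this assay, cells in 96-well plates receive the compound at five concentrations for 48 hours. Endpoints are linearly interpolated between the surrounding concentrations. GI50 is the concentration that inhibits growth by half.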 Active and inactive are the calls of the source. Rule as the data show it: active = GI50 up to about 1.1 µM and inactive = higher.

Columns and labels:
Test in all cases: NCI-60 cell line screen, 48 h
786-0 = test system: 786-0
A549 = test system: A549
ACHN = test system: ACHN
BT-549 = test system: BT-549
CAKI-1 = test system: CAKI-1
COLO 205 = test system: COLO 205
DU-145 = test system: DU-145
EKVX = test system: EKVX
HCC 2998 = test system: HCC 2998
HCT-116 = test system: HCT-116
HCT-15 = test system: HCT-15
HL-60 = test system: HL-60
HOP-62 = test system: HOP-62
HOP-92 = test system: HOP-92
HT-29 = test system: HT-29
IGROV-1 = test system: IGROV-1
K562 = test system: K562
KM12 = test system: KM12
LOX IMVI = test system: LOX IMVI
M14 = test system: M14
MCF7 = test system: MCF7
MDA-MB-435 = test system: MDA-MB-435
MDA-N = test system: MDA-N
MOLT-4 = test system: MOLT-4
Malme-3M = test system: Malme-3M
NCI-H226 = test system: NCI-H226
NCI-H23 = test system: NCI-H23
NCI-H460 = test system: NCI-H460
NCI-H522 = test system: NCI-H522
NCI/ADR-RES = test system: NCI/ADR-RES
OVCAR-3 = test system: OVCAR-3
OVCAR-4 = test system: OVCAR-4
OVCAR-5 = test system: OVCAR-5
OVCAR-8 = test system: OVCAR-8
PC-3 = test system: PC-3
RPMI-8226 = test system: RPMI-8226
RXF 393 = test system: RXF 393
SF-268 = test system: SF-268
SF-295 = test system: SF-295
SK-MEL-28 = test system: SK-MEL-28
SK-MEL-2 = test system: SK-MEL-2
SK-MEL-5 = test system: SK-MEL-5
SK-OV-3 = test system: SK-OV-3
SN12C = test system: SN12C
SNB-19 = test system: SNB-19
SNB-75 = test system: SNB-75
SR = test system: SR
SW-620 = test system: SW-620
T47D = test system: T47D
TK-10 = test system: TK-10
U-251 = test system: U-251
UACC-257 = test system: UACC-257
UACC-62 = test system: UACC-62
UO-31 = test system: UO-31
CCRF-CEM = test system: CCRF-CEM
SF-539 = test system: SF-539

Measured: GI50

COc1cn2c(cc1=O)COc1ccc(-c3ccccc3)cc1-2
inactive: 786-0 > 88.1 µM | A549 39.6 µM | ACHN 48.4 µM | BT-549 24.7 µM | CAKI-1 43.4 µM | COLO 205 56 µM | DU-145 52.4 µM | EKVX 36 µM | HCC 2998 46.9 µM | HCT-116 40 µM | HL-60 41.3 µM | HOP-62 83.6 µM | HOP-92 46.9 µM | HT-29 45.4 µM | IGROV-1 38.8 µM | K562 89.3 µM | KM12 52.1 µM | LOX IMVI 36.9 µM | M14 45.4 µM | MCF7 21.1 µM | MDA-MB-435 39.7 µM | MDA-N 49.5 µM | MOLT-4 44.5 µM | Malme-3M 42.6 µM | NCI-H226 64.6 µM | NCI-H23 45.5 µM | NCI-H460 37.6 µM | NCI-H522 27.9 µM | NCI/ADR-RES 49.9 µM | OVCAR-3 > 55.7 µM | OVCAR-4 > 85.1 µM | OVCAR-5 > 96.2 µM | OVCAR-8 > 76.4 µM | PC-3 43.2 µM | RPMI-8226 42.9 µM | RXF 393 > 82.6 µM | SF-268 60.8 µM | SF-295 > 78.2 µM | SK-MEL-28 > 100 µM | SK-MEL-2 > 100 µM | SK-MEL-5 23.5 µM | SK-OV-3 > 73.8 µM | SN12C 77.3 µM | SNB-19 40 µM | SNB-75 35.8 µM | SR 15.2 µM | SW-620 > 100 µM | T47D 20.5 µM | TK-10 20 µM | U-251 65.2 µM | UACC-257 41 µM | UACC-62 44 µM | UO-31 28.4 µM
54.5 µM: HCT-15

O=S(=O)(Nc1nccs1)c1ccc(Nc2nc(-c3cccs3)nc3ccc(I)cc23)cc1
inactive: 786-0 15.5 µM | A549 26.7 µM | ACHN 29.6 µM | BT-549 11.9 µM | CAKI-1 9.91 µM | CCRF-CEM 3.48 µM | COLO 205 6.34 µM | DU-145 9.48 µM | EKVX 2.22 µM | HCC 2998 13.2 µM | HCT-116 8.97 µM | HL-60 42.3 µM | HOP-62 16.3 µM | HOP-92 9.35 µM | HT-29 18.7 µM | IGROV-1 17.4 µM | K562 14.8 µM | KM12 7.36 µM | LOX IMVI 14.6 µM | M14 22.4 µM | MCF7 8.28 µM | MDA-MB-435 11.8 µM | MDA-N 32.5 µM | MOLT-4 14.2 µM | Malme-3M 14.3 µM | NCI-H226 35.1 µM | NCI-H23 37.4 µM | NCI-H460 9.73 µM | NCI-H522 19.4 µM | NCI/ADR-RES > 75.5 µM | OVCAR-3 14.2 µM | OVCAR-4 26.9 µM | OVCAR-5 40.2 µM | OVCAR-8 22.2 µM | PC-3 5.12 µM | RPMI-8226 4.74 µM | RXF 393 36.5 µM | SF-268 12.6 µM | SF-295 11.8 µM | SF-539 17.8 µM | SK-MEL-28 21.4 µM | SK-MEL-2 38.5 µM | SK-MEL-5 8.18 µM | SK-OV-3 24.7 µM | SN12C 25.4 µM | SNB-19 14.5 µM | SNB-75 36.4 µM | SR 22.9 µM | SW-620 13 µM | T47D 8.43 µM | TK-10 9.51 µM | U-251 11.5 µM | UACC-257 4.49 µM | UACC-62 19.2 µM | UO-31 17 µM
32.1 µM: HCT-15
